Measurements taken from the supplement of paper PMC8671470.

What was measured:
Conditions in all cases: 72 h
[1] = tested on: BV-173
In short: (§1)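 Fifteen myeloid leukaemia lines were incubated for 72 h at 37 °C with 5% CO2 across five tenfold doses from 1 to 10,000 nM, in duplicate. ATP luminescence was normalised to vehicle and to a positive control at 10 µM and fitted with a four-parameter log-logistic model. The IC50 came from these dose–response fits.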

[2] = tested on: HEL
In short: as §1

[3] = tested on: HL-60
In short: as §1

[4] = tested on: K-562
In short: as §1

[5] = tested on: KCL-22
In short: as §1

[6] = tested on: KG-1
In short: as §1

[7] = tested on: KU-812
In short: as §1

[8] = tested on: LAMA-84
In short: as §1

[9] = tested on: ML-2
In short: as §1

[10] = tested on: MOLM-13
In short: as §1

[11] = tested on: MV4-11
In short: as §1

[12] = tested on: Mono-Mac-6
In short: as §1

[13] = tested on: NOMO-1
In short: as §1

[14] = tested on: SHI-1
In short: as §1

[15] = tested on: THP-1
In short: as §1

[16] = tested on: BV-173; test: cell viability (% survival relative to DMSO control, bortezomib = 0%); higher = less cytotoxic
In short: (§2)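 Percent survival figures are means of duplicate wells. They were obtained by CellTiter-Glo luminescence after 10 AML and 5 CML cell lines spent 72 h at 37 °C with 5% CO2 in 384-well plates with compounds at 1, 10, 100, 1000 or 10000 nM. Vehicle was set to 100% and a 10 µM positive control to 0%.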

[17] = tested on: HEL; test: as above
In short: as §2

[18] = tested on: HL-60; test: as above
In short: as §2

[19] = tested on: K-562; test: as above
In short: as §2

[20] = tested on: KCL-22; test: as above
In short: as §2

[21] = tested on: KG-1; test: as above
In short: as §2

[22] = tested on: KU-812; test: as above
In short: as §2

[23] = tested on: ML-2; test: as above
In short: as §2

[24] = tested on: MOLM-13; test: as above
In short: as §2

[25] = tested on: MV4-11; test: as above
In short: as §2

[26] = tested on: Mono-Mac-6; test: as above
In short: as §2

[27] = tested on: NOMO-1; test: as above
In short: as §2

[28] = tested on: SHI-1; test: as above
In short: as §2

[29] = tested on: THP-1; test: as above
In short: as §2

[30] = tested on: HL-60; test: area under dose-response curve (viability, 1 nM-10 uM) (fraction (0-1)); higher = more sensitive
In short: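 In 384-well plates, the full library was rescreened in duplicate on HL-60 cells in RPMI 1640 with 10% FBS, at 1–10,000 nM in five tenfold concentrations, for 72 h at 37 °C, 5% CO2. Each run also held DMSO or 100 nM of one of three metabolic inhibitors. Viability was measured by CellTiter-Glo and normalised to DMSO wells and to wells with proteasome inhibitor, present at 10 μM. Any area under the curve comes from four-parameter log-logistic fitting with drc and PharmacoGx.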

NCCCC(N)(C(=O)O)C(F)F (configuration not stated) [Difluoromethylornithine]
Conditions	IC50 (cell viability) [µM]
[1]	> 10
[2]	> 10
[3]	> 10
[4]	> 10
[5]	> 10
[6]	> 10
[7]	> 10
[8]	> 10
[9]	> 10
[10]	> 10
[11]	> 10
[12]	> 10
[13]	> 10
[14]	> 10
[15]	> 10

Conditions	area under dose-response curve, co-treatment: AZD3965 100 nM	area under dose-response curve, co-treatment: DMSO vehicle	area under dose-response curve, co-treatment: GSK2194069 100 nM	area under dose-response curve, co-treatment: pictilisib 100 nM	cell viability, 1 nM [%]	cell viability, 10 nM [%]	cell viability, 100 nM [%]	cell viability, 1000 nM [%]	cell viability, 10000 nM [%]
[16]	–	–	–	–	97.1	91.2	96.8	95.2	105
[17]	–	–	–	–	100	96.8	90.1	104	95.9
[18]	–	–	–	–	93.6	123	98.7	88.8	99.5
[19]	–	–	–	–	99.3	104	97	107	126
[20]	–	–	–	–	111	84.4	88.1	95	101
[21]	–	–	–	–	96.1	88.8	90.8	95.1	105
[22]	–	–	–	–	116	96.2	83.1	99.3	105
[23]	–	–	–	–	93.5	79.1	93.4	92.1	96.5
[24]	–	–	–	–	87.2	103	93.3	107	101
[25]	–	–	–	–	93.8	98.9	81.3	85.5	109
[26]	–	–	–	–	98.2	92.7	94.2	98.5	93.3
[27]	–	–	–	–	99.5	91.5	102	95.6	99.7
[28]	–	–	–	–	100	100	90.9	104	106
[29]	–	–	–	–	96.5	95.6	98.9	100	104
[30]	< 0.0301	< 0.0301	< 0.0301	< 0.0301	–	–	–	–	–

CC(C)c1cc2c(c(O)c1O)[C@@]1(C(=O)O)CCCC(C)(C)[C@@H]1CC2 [Carnosic acid]
Conditions	IC50 (cell viability) [µM]
[1]	5.01
[2]	> 10
[3]	> 10
[4]	> 10
[5]	> 10
[6]	> 10
[7]	> 10
[8]	> 10
[9]	> 10
[10]	> 10
[11]	> 10
[12]	> 10
[13]	> 10
[14]	> 10
[15]	> 10

Conditions	area under dose-response curve, co-treatment: AZD3965 100 nM	area under dose-response curve, co-treatment: DMSO vehicle	area under dose-response curve, co-treatment: GSK2194069 100 nM	area under dose-response curve, co-treatment: pictilisib 100 nM	cell viability, 1 nM [%]	cell viability, 10 nM [%]	cell viability, 100 nM [%]	cell viability, 1000 nM [%]	cell viability, 10000 nM [%]
[16]	–	–	–	–	87.5	96.7	98.2	82.6	43.8
[17]	–	–	–	–	100	112	92.1	100	97.4
[18]	–	–	–	–	99.7	97.3	89.3	91.5	109
[19]	–	–	–	–	105	93.4	89.4	87.4	83.2
[20]	–	–	–	–	101	104	73.1	103	90.7
[21]	–	–	–	–	92.4	96	96	104	103
[22]	–	–	–	–	94.3	100	89.4	92.6	74.1
[23]	–	–	–	–	93.4	105	85.9	94.5	67.6
[24]	–	–	–	–	101	120	84.7	124	106
[25]	–	–	–	–	98.5	103	93.5	91.7	79.9
[26]	–	–	–	–	92.7	102	103	90.4	64.3
[27]	–	–	–	–	96.5	100	96.9	99	102
[28]	–	–	–	–	101	112	95	112	108
[29]	–	–	–	–	98.3	101	109	83.9	66.9
[30]	< 0.0301	< 0.0301	< 0.0301	< 0.0301	–	–	–	–	–

CCN(CC)CCCC(C)Nc1ccnc2cc(Cl)ccc12 (configuration not stated) [Chloroquine]
Conditions	IC50 (cell viability) [µM]
[1]	> 10
[2]	> 10
[3]	> 10
[4]	> 10
[5]	> 10
[6]	> 10
[7]	> 10
[8]	> 10
[9]	> 10
[10]	> 10
[11]	> 10
[12]	> 10
[13]	> 10
[14]	> 10
[15]	> 10

Conditions	area under dose-response curve, co-treatment: AZD3965 100 nM	area under dose-response curve, co-treatment: DMSO vehicle	area under dose-response curve, co-treatment: GSK2194069 100 nM	area under dose-response curve, co-treatment: pictilisib 100 nM	cell viability, 1 nM [%]	cell viability, 10 nM [%]	cell viability, 100 nM [%]	cell viability, 1000 nM [%]	cell viability, 10000 nM [%]
[16]	–	–	–	–	111	89.5	111	97.1	85.2
[17]	–	–	–	–	95.4	94.5	89.6	97.6	104
[18]	–	–	–	–	101	79.8	97.1	101	76.4
[19]	–	–	–	–	101	111	105	103	86.3
[20]	–	–	–	–	95.6	106	100	95.7	102
[21]	–	–	–	–	112	101	89.7	102	88.1
[22]	–	–	–	–	109	97.8	102	98.1	96.9
[23]	–	–	–	–	108	98.7	97	100	94
[24]	–	–	–	–	103	81.8	112	107	101
[25]	–	–	–	–	108	93.7	105	104	90.5
[26]	–	–	–	–	105	94.9	104	93.4	92.1
[27]	–	–	–	–	110	99.3	97.9	96.2	93.7
[28]	–	–	–	–	108	106	96.6	89.8	92
[29]	–	–	–	–	108	101	101	98.7	98.5
[30]	< 0.0301	< 0.0301	< 0.0301	< 0.0301	–	–	–	–	–
